Assay results taken from patent publication US20190328857A1, “CALR AND JAK2 VACCINE COMPOSITIONS” (IO Biotech ApS, priority 2016, published 2019).

System: CALRLong1-specific T-cells
Experiment: Intracellular cytokine staining of CALRLong1-specific T-cell culture stimulated with peptide
Format: cell-based, human
Method: Fresh PBMCs were first enriched for CD14+ cells using MACS CD14 MicroBeads (Miltenyi Biotech GmbH, Bergisch Gladbach, Germany). This was considered day 0. The resulting monocyte-depleted cell culture was termed peripheral blood lymphocytes (PBL). The enriched cells were cultured using CellGro (CellGenix GmbH, Freiburg, Germany), and stimulated with GM-CSF (1000 U/ml) and IL-4 (250 U/ml) (both PeproTech, Rocky Hill, N.J., USA). The next day, to generate fast dendritic cells (fastDC), we treated half of the enriched cells with a maturation cocktail comprising IFN-γ (1000 U/ml) (PeproTech, Rocky Hill, N.J., USA), PolyI:C (20 μg/ml) (Sigma-Aldrich, St. Louis, Mo., USA) and CALRLong1 peptide. PBL were cultured overnight in X-VIVO medium (Lonza Group Ltd., Basel, Switzerland) and then stimulated with half of the fastDC. The other half of the fastDC were frozen for later use.
The other half of the enriched cells were cultured until day 7, at which time these cells were treated with the same maturation cocktail as above, to generate mature dendritic cells (mDC). The next day, these mDC were used to stimulate PBLs. On day 9, IL-2 (120 U/mL) (Novartis, Basel, Switzerland) and IL-7 (40 U/ml) (PeproTech, Rocky Hill, N.J., USA) was added. On day 14, we thawed the fastDC that had been frozen on day 2, and used these cells to stimulate the PBL. On day 16 and day 24 we added, IL-2 and IL-7 in the concentrations mentioned above.
At day 38 of the T-cell culture, we stimulated the T-cells with CALRLong1 peptide for 4 h and next isolated IFN-γ secreting cells using the MACS IFN-γ secretion assay. The isolated cells were expanded using a rapid expansion protocol. The vast majority of cells that reacted to CALRLong1 peptide stimulation were CD4^+ T-cells; thus, we isolated CD4^+ T cells from the REP culture using the EasySep Human CD4 isolation Kit (StemCell Technologies, Inc., Vancouver, BC, Canada). The enriched CD4^+ T-cells were then cloned by limiting dilution, and growing T-cell clones were rapidly expanded using feeder cells and high dose IL-2 (6000 u/ml). T-cell receptor clonotyping of the cloned cells was performed by denaturing gradient gel electrophoresis as previously described.
Frozen T-cells were thawed one day prior to assaying, and in experiments examining CD107a expression, a CD107a-PE antibody was added to cells directly after addition of peptide or target cells. After one hour of stimulation, protein-transport inhibitor Brefeldin A (BD Biosciences, San Jose, Calif., USA) was added to the cells which were then stimulated for four h. Cells were stained with CD3-APC-H7, CD4-FITC, CD8-PerCP, IFN-γ-APC, TNF-α-BV421 and Fixable Viability Stain 510 (BD Biosciences, San Jose, Calif., USA), permeabilized and washed with Permeabilization Reagent/Diluent and fixation-permeabilization buffer (AH Diagnostics, Aarhus, Denmark). Cells were acquired with a FACS Canto II (BD Biosciences) and analyzed using FACSDiva software. All effector cell stimulations were run in triplicate wells if not otherwise specified.

[1] = after three stimulations with autologous dendritic cells

**Q.** Which results are given for “RRMMRTKMRMRRMRRTRRKMRRKMSPARP (listed as Homo sapiens) [CALRLong1]”?
**A.** specificity of cloned CD4^+ T-cell culture for the peptide (ICS): 100%; CD4^+ T cells that responded against the peptide (after IFN-γ enrichment of the bulk culture): ~40%; response of CD4^+ T cells of the CALRLong1 bulk culture to peptide stimulation [1]: responded; response of CD8^+ T cells of the CALRLong1 culture to peptide stimulation [1]: no response; CD107a expression on CD4^+ CALRLong1-specific T-cells (stimulation with B-cells pulsed with peptide versus scrambled control): upregulated; CD4^+ T-cells in the bulk culture that upregulate CD107a (stimulation with peptide): minor fraction; recognition of peptide-pulsed autologous B-cells by the specific T cells (versus scrambled control peptide): widely recognized
